Entries after “also recorded” stand apart in the source; their conditions may differ.
Columns and labels:
BTK = BTK (Homo sapiens (Human), UniProt Q06187); experiment: BTK kinase activity inhibition assay (Caliper mobility shift); format: biochemical; details: ATP 90 μM, read-out: BTK IC50 level
Method: Activity of BTK protein kinase was tested by Caliper mobility shift assay (referring to J Biomol Screen 14:31, 2009). The compound of the present disclosure was dissolved in DMSO and then diluted 10-fold with kinase buffer solution (50 mM HEPES-pH 7.5, 0.0015% Brij-35, 10 mM MgCl2, 2 mM DTT). […] 10 μl of a substrate solution of a substrate FAM-labeled SRCtide peptide (Biochem, Cat. No. 112394) and ATP (90 μM) with 2.5-fold final reaction concentration was further added to start the reaction. Then incubation was performed for 10 minutes at room temperature. After incubation for 1 hour 28° C., 25 μl of stopping solution (100 mM HEPES, pH 7.5, 0.015% Brij-35, 0.2% Coating Reagent #3, 50 mM EDTA) was added to terminate the reaction. The conversion ratio data was read on Caliper EZ Reader II (Caliper Life Sciences). The inhibition ratio was calculated and the calculation formula is: inhibition ratio %=(max-conversion)/(max-min)×100 %.

HCC827 NSCLC cell = experiment: Tumor cell proliferation inhibition assay (CellTiter-Glo), HCC827; format: cell-based; details: Homo sapiens, 72 hours, 10% fetal calf serum, read-out: HCC827 anti-proliferative IC50 level
Method: (§1) Cell viability was evaluated by measuring a content of triphosadenine (ATP) by using CellTiter-Glo luminescent cell viability assay kit method (Promega, # G7572, Madison, Wis.). Diffuse large B cell lymphoma cell strain TMD-8 and HCC827 NSCL cell strains are purchased from Shanghai Fudan IBS Cell Center and American Type Culture Collection (ATCC). After the cells were digested from a cell culture dish by pancreatin and re-suspended by DPBS culture medium, a Scepter automatic cell counter (Millipore, # PHCC00000) was used for counting to measure a cell density. The cells were diluted to be a solution containing 44,000 cells per milliliter. The cell solution with the adjusted density was added into a cell assay plate with 90 μl per well. The well plate was placed to an incubator with 5% CO2 at 37° C. to be incubated for 24 hours and then added with the compound to be tested with different concentrations. The cells and the compound were together incubated for 72 hours in the presence of 10% fetal calf serum. The content of ATP was measured by using CellTiter-Glo® Luminescent Cell Viability Assay kit (referring to manufacturer's instruction) to evaluate the inhibition to the cell growth. Briefly speaking, each well was added with 30 μl of CellTiter-Glo® reagent, the plate was shaken for 10 minutes to induce the cells to be lysed, and fluorescence signal was detected and recorded by fluorescencelchemiluminescence analyzer Fluoroskan Ascent FL (Thermo Scientific Fluoroskan Ascent FL). The maximal signal value was obtained from cells processed by dimethyl sulfoxide (DMSO) for 72 or 120 hours. The minimal signal value obtained from separate culture medium (wherein the number of cells was zero) was defined as 0. Inhibition ratio %=(maximal signal value-compound signal value)/(maximal signal value−minimal signal value)×100%. The data was processed by using GraphPad Prism V5.0 (GraphPad Software San Diego, Calif.) software. IC50 value was fitted and calculated via S-shaped dose-response curve.

[1] = tested on: Diffuse large B cell lymphoma cell strain TMD-8; experiment: Tumor cell proliferation inhibition assay (CellTiter-Glo), TMD-8; format: cell-based; details: Homo sapiens, TMD8; 72 hours, 10% fetal calf serum; read-out: TMD-8 anti-proliferative IC50 level
Method: as §1

Txk (h) = Txk (h) (Homo sapiens (Human), UniProt P42681); experiment: Txk activity inhibition assay (radioactive protein kinase method, Eurofins); format: biochemical; details: for IC50: Km ATP, radiometric
Txk (h), sequence (P42681 whole entry): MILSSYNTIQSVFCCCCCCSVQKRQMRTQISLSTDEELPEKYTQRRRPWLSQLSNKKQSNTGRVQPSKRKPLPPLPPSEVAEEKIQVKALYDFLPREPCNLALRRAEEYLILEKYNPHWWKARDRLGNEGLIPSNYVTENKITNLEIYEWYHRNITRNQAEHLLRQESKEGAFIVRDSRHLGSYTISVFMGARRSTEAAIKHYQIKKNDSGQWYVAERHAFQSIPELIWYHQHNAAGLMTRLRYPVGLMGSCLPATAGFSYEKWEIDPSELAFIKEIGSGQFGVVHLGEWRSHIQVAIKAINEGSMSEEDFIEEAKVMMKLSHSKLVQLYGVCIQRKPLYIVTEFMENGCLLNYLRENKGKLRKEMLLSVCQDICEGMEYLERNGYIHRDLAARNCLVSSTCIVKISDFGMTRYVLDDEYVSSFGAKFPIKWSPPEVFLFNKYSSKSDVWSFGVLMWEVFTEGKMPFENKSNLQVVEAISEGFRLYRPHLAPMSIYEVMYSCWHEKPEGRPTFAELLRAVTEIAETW
Method: (§2) The inhibitory activities of the compound to Tec, Txk, and ITK of human were performed by Eurofins Pharma Discovery Services UK Limited (UK) of the United Kingdom. In the case of Km ATP, the radioactive protein kinase method was adopted by the test. The kinase was diluted with buffer solution (20 mM MOPS, 1 mM EDTA, 0.01% Brij-35, 5% Glycerol, 0.1% […], 1 mg/mL BSA) before the reaction. The compound was dissolved in 100% DMSO and was of 50-fold final reaction concentration.
TxK reaction solution contained 8 mM MOPS pH 7.0, 0.2 mM EDTA, 250 μM […], 10 mM magnesium acetate, and [γ-^33P]-ATP (about 500 cpm/pmol), 200 μM ATP-Mg was added, after mixing, the reaction was started, the incubation was performed for 40 minutes at room temperature, and 3% phosphoric acid solution was added to terminate the reaction, 10 μl (reaction solution) was placed on P30 filtration membrane, washed with 75 mM phosphoric acid for 5 minutes, and dried with methanol for one time, and then scintillation counting was performed.

[2] = Pharmacokinetic (PK) assay in rats; format: in vivo, rat; details: 20 mg/kg oral; for AUC(0-t): read-out: AUC0-24
Method: A male SD rat with 250-300 g of weight was fasted overnight before the assay. The compound to be tested was dissolved in 30% sulfobutyl ether-β-cyclodextrin (SBE-β-CD) and intragastrically administrated to the rat by 20 mg/kg of dosages. Take blood at 15th minute, 30th minute, and 1st, 2nd, 3rd, 4th, 6th, 8th, and 24th hours after the administratation, and about 0.3 mL of blood was taken at each time point. The blood samples were placed into centrifuge tubes containing K2-EDTA (dipotassium ethylene diamine tetraacetate) and plasma was taken via centrifugal treatment (2,000 g, 10 minutes, 4° C.) and stored in a −80° C. of ultra low temperature refrigerator. 50 μL of plasma sample was mixed with 50 μL of internal standard (IS) and extracted with ethyl acetate. After vacuum dried, the residue was re-dissolved in acetonitrile The sample was filtered and injected into LC-MS/MS to be analyzed.

Tec (h) activated = Tec (h) activated (Homo sapiens (Human), UniProt P42680); experiment: Tec activity inhibition assay (radioactive protein kinase method, Eurofins); format: biochemical
Tec (h) activated, sequence (P42680 whole entry): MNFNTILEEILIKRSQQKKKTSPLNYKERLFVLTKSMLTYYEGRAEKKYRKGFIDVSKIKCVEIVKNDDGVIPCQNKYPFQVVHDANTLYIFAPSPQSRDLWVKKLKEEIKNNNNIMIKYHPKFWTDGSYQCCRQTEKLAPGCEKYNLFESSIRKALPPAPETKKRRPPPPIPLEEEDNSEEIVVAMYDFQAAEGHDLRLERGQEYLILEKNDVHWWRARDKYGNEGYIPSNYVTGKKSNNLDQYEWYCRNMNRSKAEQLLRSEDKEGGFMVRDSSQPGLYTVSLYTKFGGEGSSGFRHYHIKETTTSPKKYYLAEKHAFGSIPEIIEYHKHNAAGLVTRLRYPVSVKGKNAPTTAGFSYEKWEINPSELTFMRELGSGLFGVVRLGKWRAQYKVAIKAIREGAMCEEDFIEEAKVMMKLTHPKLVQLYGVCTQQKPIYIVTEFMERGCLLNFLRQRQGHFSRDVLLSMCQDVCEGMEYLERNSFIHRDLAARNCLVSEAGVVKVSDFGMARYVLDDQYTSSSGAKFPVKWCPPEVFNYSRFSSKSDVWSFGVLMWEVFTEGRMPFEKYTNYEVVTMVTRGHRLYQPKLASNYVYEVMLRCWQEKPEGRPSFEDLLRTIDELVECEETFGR
Method: as §2
10 μl (reaction solution) was placed on P30 filtration membrane, washed with 75 mM phosphoric acid for 5 minutes, and dried with methanol for one time, and then scintillation counting was performed.

[3] = tested on: TMD-8 lymphoma cell strain transplanted tumor; experiment: Tumor model pharmacodynamic assay, TMD-8 transplanted tumor; format: in vivo, mice; details: for T/C (relative tumor volume increased ratio): 18 days
Method: The dose-effect relationship of inhibition of the compound to tumor growth in a diffuse large B cell lymphoma cell strain TMD-8 transplanted tumor model was studied in the present assay. When volume of TMD-8 tumor reached around 200 mm^3, the animals were divided into four oral administration groups, i.e. vehicle control group and 50 mg/kg, 100 mg/kg, and 200 mg/kg of compound 1 oral administration groups (n=8/
roup). […]
The tumor volume was measured, and the relative tumor volume (RTV) and the relative tumor volume increased ratio were calculated. RTV=Vt/V0, wherein Vt is the average value of the tumor volume at t^th day after the grouping and administrating, and V0 is the average value of the tumor volume at the grouping day. T/C=treatment group RTV/control group RTVx100%.

Itk (h) = Itk (h) (Homo sapiens (Human), UniProt Q08881); experiment: ITK activity inhibition assay (radioactive protein kinase method, Eurofins); format: biochemical
Itk (h), sequence (Q08881 whole entry): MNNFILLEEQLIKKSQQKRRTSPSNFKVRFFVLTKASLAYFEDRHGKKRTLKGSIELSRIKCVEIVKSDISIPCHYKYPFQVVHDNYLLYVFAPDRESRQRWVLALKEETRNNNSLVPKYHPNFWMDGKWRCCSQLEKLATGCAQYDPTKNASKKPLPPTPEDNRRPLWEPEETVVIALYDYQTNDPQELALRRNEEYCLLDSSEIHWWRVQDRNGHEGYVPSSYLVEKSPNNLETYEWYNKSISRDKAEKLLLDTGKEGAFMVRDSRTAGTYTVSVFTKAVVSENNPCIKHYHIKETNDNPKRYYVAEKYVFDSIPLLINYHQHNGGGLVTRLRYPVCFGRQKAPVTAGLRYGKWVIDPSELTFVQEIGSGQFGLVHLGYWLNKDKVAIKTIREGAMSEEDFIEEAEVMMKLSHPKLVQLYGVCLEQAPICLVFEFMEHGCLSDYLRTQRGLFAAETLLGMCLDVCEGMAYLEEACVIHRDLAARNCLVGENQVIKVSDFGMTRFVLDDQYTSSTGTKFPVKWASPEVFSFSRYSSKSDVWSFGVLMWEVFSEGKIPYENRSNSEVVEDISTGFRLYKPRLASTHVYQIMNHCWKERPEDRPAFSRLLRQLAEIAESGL
Method: as §2
ITK reaction solution included 8 mM MOPS pH 7.0, 0.2 mM EDTA, 0.33 mg/mL myelin basic protein, 10 mM magnesium acetate, and [γ-^33P]-ATP (about 500 cpm/pmol), 200 μM ATP-Mg was added, after mixing, the reaction was started, the incubation was performed for 40 minutes at room temperature, and 3% phosphoric acid solution was added to terminate the reaction. 10 μl (reaction solution) was placed on P30 filtration membrane, washed with 75 mM phosphoric acid for 5 minutes, and dried with methanol for one time, and then scintillation counting was performed.

EGFR T790M/L858R = EGFR T790M/L858R (Homo sapiens, UniProt P00533, L858R/T790M); experiment: EGFR activity inhibition assay (Caliper mobility shift); format: biochemical
EGFR T790M/L858R, sequence (P00533 25-1210 T790M/L858R limits assumed): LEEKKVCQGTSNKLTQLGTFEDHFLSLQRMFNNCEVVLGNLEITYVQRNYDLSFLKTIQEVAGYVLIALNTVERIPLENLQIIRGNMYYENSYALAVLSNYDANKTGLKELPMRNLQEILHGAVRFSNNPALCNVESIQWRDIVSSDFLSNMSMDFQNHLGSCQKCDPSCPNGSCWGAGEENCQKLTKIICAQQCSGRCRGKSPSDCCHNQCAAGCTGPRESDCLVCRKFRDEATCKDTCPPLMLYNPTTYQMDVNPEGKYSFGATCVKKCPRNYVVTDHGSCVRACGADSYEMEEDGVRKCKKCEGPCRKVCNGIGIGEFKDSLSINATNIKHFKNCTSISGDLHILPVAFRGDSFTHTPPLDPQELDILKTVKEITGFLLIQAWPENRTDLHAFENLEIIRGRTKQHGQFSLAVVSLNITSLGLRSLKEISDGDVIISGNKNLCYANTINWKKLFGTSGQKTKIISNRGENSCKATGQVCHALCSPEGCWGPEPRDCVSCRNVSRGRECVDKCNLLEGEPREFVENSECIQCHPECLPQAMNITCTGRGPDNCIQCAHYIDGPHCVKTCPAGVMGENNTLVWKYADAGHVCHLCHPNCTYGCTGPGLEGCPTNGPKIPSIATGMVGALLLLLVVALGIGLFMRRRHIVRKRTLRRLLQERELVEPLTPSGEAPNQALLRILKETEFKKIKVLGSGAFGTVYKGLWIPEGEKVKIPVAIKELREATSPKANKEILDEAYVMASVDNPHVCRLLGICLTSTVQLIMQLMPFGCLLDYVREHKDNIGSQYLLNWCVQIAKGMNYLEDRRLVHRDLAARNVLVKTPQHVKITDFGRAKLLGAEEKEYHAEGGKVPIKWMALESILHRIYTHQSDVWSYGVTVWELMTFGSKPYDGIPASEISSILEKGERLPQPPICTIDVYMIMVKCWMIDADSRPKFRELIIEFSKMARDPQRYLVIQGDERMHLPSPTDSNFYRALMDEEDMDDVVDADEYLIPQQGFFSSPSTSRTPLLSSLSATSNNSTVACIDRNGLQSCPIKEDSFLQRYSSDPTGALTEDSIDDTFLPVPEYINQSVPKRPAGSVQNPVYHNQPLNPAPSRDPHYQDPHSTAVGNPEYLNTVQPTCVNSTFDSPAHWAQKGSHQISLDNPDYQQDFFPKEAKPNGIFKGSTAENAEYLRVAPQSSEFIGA
Excerpt: The conversion ratio data was read on Caliper EZ Reader II (Caliper Life Sciences).

BTK, sequence (Q06187 whole entry): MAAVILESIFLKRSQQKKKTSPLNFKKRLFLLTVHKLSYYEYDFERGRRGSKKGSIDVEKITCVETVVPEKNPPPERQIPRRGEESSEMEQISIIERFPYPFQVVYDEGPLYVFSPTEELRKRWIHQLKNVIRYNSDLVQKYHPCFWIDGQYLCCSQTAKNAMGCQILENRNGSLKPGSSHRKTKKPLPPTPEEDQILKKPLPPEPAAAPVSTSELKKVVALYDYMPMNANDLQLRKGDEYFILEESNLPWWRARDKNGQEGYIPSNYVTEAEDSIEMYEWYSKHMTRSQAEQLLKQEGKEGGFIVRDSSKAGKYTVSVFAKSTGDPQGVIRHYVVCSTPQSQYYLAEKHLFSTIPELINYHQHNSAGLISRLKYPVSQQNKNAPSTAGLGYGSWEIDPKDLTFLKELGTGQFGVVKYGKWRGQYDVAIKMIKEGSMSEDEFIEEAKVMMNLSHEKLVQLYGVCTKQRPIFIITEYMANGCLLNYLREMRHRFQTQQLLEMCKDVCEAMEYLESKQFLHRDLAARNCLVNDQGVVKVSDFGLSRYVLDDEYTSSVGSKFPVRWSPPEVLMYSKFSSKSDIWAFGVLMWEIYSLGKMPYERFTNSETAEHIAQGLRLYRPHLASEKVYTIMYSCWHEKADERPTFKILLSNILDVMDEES

## CC#CC(=O)N1CCC[C@H]1c1nc(-c2ccc(OCCc3ccccc3)cc2)c2c(N)nccn12 [Compound 17, (S)-1-(2-(8-amino-1-(4-phenethoxyphenyl)imidazo[1,5-a]pyrazin-3-yl)pyrrolidin-1-yl)but-2-yn-1-one]
BTK
  IC50: 300 to 750 nM

## CC#CC(=O)N1CCC[C@H]1c1nc(-c2ccc(OCc3ccccc3)nc2)c2c(N)nccn12 [Compound 9, (S)-1-(2-(8-amino-1-(6-(benzyloxy)pyridin-3-yl)imidazo[1,5-a]pyrazin-3-yl)pyrrolidin-1-yl)but-2-yn-1-one]
BTK
  IC50: > 750 nM

## C=CC(=O)N1CCC[C@H]1c1nc(-c2ccc(OCc3ccccc3)cc2)c2c(N)nccn12 [Compound 21, (S)-1-(2-(8-amino-1-(4-(benzyloxy)phenyl)imidazo[1,5-a]pyrazin-3-yl)pyrrolidin-1-yl)prop-2-en-1-one]
HCC827 NSCLC cell
  IC50: > 10000 nM
[1]
  IC50: ≤ 100 nM
BTK
  IC50: ≤ 100 nM

## CC#CC(=O)N1CCC[C@H]1c1nc(-c2ccc(OCc3cc(F)ccn3)cc2)c2c(N)nccn12 [Compound 6, (S)-1-(2-(8-amino-1-(4-((4-fluoropyridin-2-yl)methoxy)phenyl)imidazo[1,5-a]pyrazin-3-yl)pyrrolidin-1-yl)but-2-yn-1-one]
HCC827 NSCLC cell
  IC50: > 10000 nM
[1]
  IC50: 100 to 500 nM
BTK
  IC50: > 750 nM

## CC#CC(=O)N1CCC[C@H]1c1nc(-c2ccc(OCc3ccc(C(F)(F)F)cc3)cc2)c2c(N)nccn12 [Compound 2, (S)-1-(2-(8-amino-1-(4-((4-(trifluoromethyl)benzyl)oxy)phenyl)imidazo[1,5-a]pyrazin-3-yl)pyrrolidin-1-yl)but-2-yn-1-one]
HCC827 NSCLC cell
  IC50: 1000 to 10000 nM
[1]
  IC50: 100 to 500 nM
BTK
  IC50: > 750 nM

## C=CC(=O)N1CCC[C@H]1c1nc(-c2ccc(OCc3ccccn3)cc2)c2c(N)nccn12 [Compound 29, (S)-1-(2-(8-amino-1-(4-(pyridin-2-ylmethoxy)phenyl)imidazo[1,5-a]pyrazin-3-yl)pyrrolidin-1-yl)prop-2-en-1-one]
HCC827 NSCLC cell
  IC50: 1000 to 10000 nM
[1]
  IC50: ≤ 100 nM
BTK
  IC50: 100 to 300 nM

## CC#CC(=O)N1CCC[C@H]1c1nc(-c2ccc(OCc3ccc(F)cc3)cc2)c2c(N)nccn12 [Compound 3, (S)-1-(2-(8-amino-1-(4-((4-fluorobenzyl)oxy)phenyl)imidazo[1,5-a]pyrazin-3-yl)pyrrolidin-1-yl)but-2-yn-1-one]
HCC827 NSCLC cell
  IC50: > 10000 nM
[1]
  IC50: 100 to 500 nM
BTK
  IC50: > 750 nM

## CC#CC(=O)N1CCC[C@H]1c1nc(-c2ccc(C(=O)Nc3ccccn3)cc2)c2c(N)nccn12 [ACP-196, Acalabrutinib, reference compound]
HCC827 NSCLC cell
  IC50: > 10000 nM
Txk (h)
  IC50: 5000 nM
[1]
  IC50: ≤ 100 nM
[2]; male SD rat
  t1/2: 7.9 h
[2]; plasma, male SD rat
  AUC(0-inf): 1400 ng·h/mL
  Cmax: 668 ng/mL
  half-life: 7.9 h
  AUC(0-t): 1300 ng·h/mL

## CC#CC(=O)N1CCC[C@H]1c1nc(-c2ccc(OCc3ccccn3)cc2)c2c(N)nccn12 [Compound 5, (S)-1-(2-(8-amino-1-(4-(pyridin-2-ylmethoxy)phenyl)imidazo[1,5-a]pyrazin-3-yl)pyrrolidin-1-yl)but-2-yn-1-one]
BTK
  IC50: 300 to 750 nM

## CC#CC(=O)N1CCC[C@H]1c1nc(-c2ccc(OCc3ccccc3)cc2)c2c(N)nccn12 [Compound 1, (S)-1-(2-(8-amino-1-(4-(benzyloxy)phenyl)imidazo[1,5-a]pyrazin-3-yl)pyrrolidin-1-yl)but-2-yn-1-one]
HCC827 NSCLC cell
  IC50: > 10000 nM
Tec (h) activated
  inhibitory activity to Tec (in words): very low
Tec (h) activated; Km ATP, radiometric
  IC50: 218 nM
Txk (h)
  inhibitory activity to Txk (in words): very low
  IC50: 4540 nM
[1]
  IC50: ≤ 100 nM
[3]; 50 mg/kg oral once a day
  T/C (relative tumor volume increased ratio): 71%
[3]; 100 mg/kg oral once a day
  T/C (relative tumor volume increased ratio): 7%
[3]; 200 mg/kg oral once a day
  T/C (relative tumor volume increased ratio): −91%
[3]; each administration group, 50, 100, 200 mg/kg oral
  weight of the animal compared to before the administration: increased
[3]; oral administration, 50-200 mg/kg
  inhibition of growth of TMD-8 transplanted tumor (in words): inhibit the growth of TMD-8 transplanted tumor dose-dependently; also recorded: dosage-dependently inhibit the growth
Itk (h)
  inhibitory activity to ITK (in words): very low
Itk (h); Km ATP, radiometric
  IC50: > 10000 nM
EGFR T790M/L858R
  inhibitory effect on EGFR (in words): does not inhibit
EGFR T790M/L858R; Km ATP
  IC50: > 10000 nM
BTK
  IC50: ≤ 100 nM
[2]; male SD rat
  t1/2: 4.2 h
[2]; plasma, male SD rat
  AUC(0-inf): 3490 ng·h/mL
  Cmax: 1540 ng/mL
  Tmax: 0.5 h
  half-life: 4.2 h
  AUC(0-t): 3480 ng·h/mL
[2]; rat
  AUC relative to ACP-196: more than double
  Cmax relative to ACP-196: more than double
  half-life compared to ACP-196 (in words): shorter half-life
  plasma exposure amount compared to ACP-196 (in words): higher plasma exposure amount

## C=CC(=O)N1CCC[C@H]1c1nc(-c2ccc(OCc3ccccc3)nc2)c2c(N)nccn12 [Compound 25, (S)-1-(2-(8-amino-1-(6-(benzyloxy)pyridin-3-yl)imidazo[1,5-a]pyrazin-3-yl)pyrrolidin-1-yl)prop-2-en-1-one]
HCC827 NSCLC cell
  IC50: > 10000 nM
[1]
  IC50: ≤ 100 nM
BTK
  IC50: ≤ 100 nM

Reference: patent US10919899B2, “Imidazopyrazine compounds, preparation methods and uses thereof” (DONGGUAN ZHENXING-BEITE MEDICINE TECHNOLOGY CO., LTD., priority 2017, dated 2021)
